Experimental data from patent publication US12122783B2, “Stable salt of 5,10-methylene-(6R)-tetrahydrofolic acid” (MERCK & CIE, priority 2013, dated 2024).
Counter-ions that a name gives are not always drawn.

Columns and labels:
[1] = Long-term stability of hemisulfate salt stored in air, content by HPLC; type: physicochemical; details: for (6R)-5,10-CH2-THF hemisulfate remaining: solid, air, 25 °C/60% relative humidity
Method: (§1) In order to determine the long-term stabilities of (6R)-5,10-CH2-THF hemisulfate salt, the compounds of the invention were stored in air at 25° C. and at 60% relative humidity. The content of (6R)-5,10-CH2-THF hemisulfate salt remaining was measured by HPLC at periodic intervals and is given by comparison with the initial value (% rel.).

[2] = Phase I/II study ISO-CC-002, pharmacokinetics/pharmacodynamics versus Levoleucovorin in tumor tissue, adjacent mucosa and blood plasma; type: in vivo; details: colon cancer patients
Method: (b) In a single-blinded, randomized phase I/II study (ISO-CC-002) performed on 32 patients diagnosed with colon cancer the pharmacokinetic and pharmacodynamic properties of (6R)-5,10-CH2-THF hemisulfate compared to Levoleucovorin in tumor tissue, adjacent mucosa and blood plasma were investigated. The study was performed at the Sahlgrenska University Hospital in Göteborg, Sweden. […] The concentrations of methylenetetrahydrofolate and tetrahydrofolate in both tumor and adjacent mucosa were also much higher after administration of (6R)-5,10-CH2-THF hemisulfate than those obtained after administration of Levoleucovorin.

[3] = Long-term stability of lyophilisates stored in air, content by HPLC; type: physicochemical; details: room temperature, pharmaceutical composition such as a lyophilisate
Method: as §1, with “salt as pharmaceutical compositions, more specifically as lyophilisates (as prepared according to e.g. Example 5), lyophilisates” for “salt, the compounds of the invention”

[4] = TG-FTIR thermogram under N2 flow; type: physicochemical; details: 10 K min^−1
Method: TG-FTIR (Netzsch Thermo-Microbalance TG 209 with Bruker FT-IR Spectrometer IFS 28): Al crucible (with microhole); N2 atmosphere; 10 K min^−1 heating rate; 25° C. to 300° C. range.
• (a) The FT Raman spectrum of (6R)-5,10-CH2-THF hemisulfate salt, recorded using a nominal laser power level of 300 mW and 64 scans is shown in FIG. 1. • (b) The corresponding powder X-ray diffractogram, recorded in transmission mode, is shown in FIG. 2. • (c) The TG-FTIR thermogram of (6R)-5,10-CH2-THF hemisulfate salt is shown in FIG. 3. It was carried out under N2 flow (to avoid oxidative degradation). […] Prior to the first heating scan, the sample was equilibrated for three minutes under gaseous nitrogen flow and lost 0.6 wt.-% of its mass during that time. This is consistent with the water content observed in the TG-FTIR thermogram (see FIG. 3) and confirms that this water is loosely bound. The sample was subsequently heated in a closed gold crucible to 254° C. at 10 K min^−1, quench cooled to −50° C., and heated a second time at 10 K min^−1. […] No other thermal events were observed up to 250° C. • (e) The IR spectrum was recorded in a pressed KBr pellet and the characteristic absorption bands are shown in Table 3. • (f) The ^1H NMR spectrum of (6R)-5,10-CH2-THF hemisulfate salt was recorded in DMSO-d6 and the chemical shifts (d) in ppm are shown in Table 8.

[5] = Stability in 85% ethanol at room temperature (XRPD); type: physicochemical; details: 85% EtOH, stirred 5 h, filtered and dried
Method: (§2) Powder X-Ray Diffraction (Bruker D8 Advance): Copper Kα radiation, 40 kV/40 mA, LynxEye detector, Bragg-Brentano reflection geometry, 0.02° 2θ step size, 37 s step time, 2.5-50° 2θ range. Powder samples were measured in 0.1-mm or 0.5-mm deep silicon single-crystal sample holders. No special treatment was used in preparing the samples other than the application of slight pressure to get a flat surface. An ambient air atmosphere was used for all measurements, and the samples were rotated during the measurement. Absent any information to the contrary X-Ray Diffraction data is shown as reflection data.
• (b) Stability in 85% ethanol at room temperature
(§3) (6R)-5,10-CH2-THF hemisulfate salt (3.01 g) was dispersed in 100 ml 85% EtOH at room temperature and stirred for 5 h, then filtered and dried at 30° C. and 8 mbar for 12 hours (over night).

[6] = Stability at high temperature/low pressure (XRPD); type: physicochemical; details: drying chamber 65 °C, 8 mbar, 21 h
Method: as §2, §3
(6R)-5,10-CH2-THF hemisulfate salt (2.17 g) was placed in a drying chamber at 65° C. and 8 mbar for 21 h.

[7] = system: rats; details: rat, in vivo, 100 mg/kg/day
[8] = Suspension equilibration stability in solvents and mixtures; type: physicochemical
From the text: • (a) Suspension equilibration of (6R)-5,10-CH2-THF hemisulfate salt as starting material at temperatures other than room temperature in a variety of solvents and mixture are summarized in Table 10: […]

[9] = system: patients; test: Clinical safety data in patients; type: in vivo; details: doses of up to 200 mg/m^2
[10] = system: dogs; details: dog, in vivo, 50 mg/kg/day
[11] = Comparative long-term stability of sulfate salt, content by HPLC; type: physicochemical
Method: In order to compare the long-term stabilities of (6R)-5,10-CH2-THF hemisulfate salt, the compounds of the invention, to the long-term stabilities of (6R)-5,10-CH2-THF sulfate salt prepared according to EP 0 537 492 B1, stability data for (6R)-5,10-CH2-THF sulfate salt has been generated at various temperatures and humidities. • (a) Stability of (6R)-5,10-CH2-THF sulfate
(6R)-5,10-CH2-THF sulfate salt was prepared according to literature procedures (EP 0 537 492 B1) and stored for 15 month at −20° C. Subsequently, samples of the product were stored at 5° C. resp. at 25° C. and 60% relative humidity resp. at 40° C. and 75% relative humidity. The content of (6R)-5,10-CH2-THF sulfate salt remaining in the sample was measured by HPLC at periodic intervals. The content of (6R)-5,10-CH2-THF sulfate was compared to the initial value at the time of preparation (% rel.).

## Nc1nc2c(c(=O)[nH]1)N1CN(c3ccc(C(=O)N[C@@H](CCC(=O)O)C(=O)O)cc3)C[C@H]1CN2 [(6R)-5,10-CH2-THF hemisulfate salt, 5,10-methylene-(6R)-tetrahydrofolic acid]
[1]; room temperature, pure compound
  Stability over a long period of time (conclusion from Table 11): highly stable
[1]; 0 months
  (6R)-5,10-CH2-THF hemisulfate remaining: 100.0 % rel.
[1]; 3 months, listed as (6R)-5,10-CH2-THF hemisulfate (batch 1)
  (6R)-5,10-CH2-THF hemisulfate remaining: 99.7 % rel.
[1]; 3 months, listed as (6R)-5,10-CH2-THF hemisulfate (batch 2)
  (6R)-5,10-CH2-THF hemisulfate remaining: 99.9 % rel.
[1]; 3 months, listed as (6R)-5,10-CH2-THF hemisulfate (batch 3)
  (6R)-5,10-CH2-THF hemisulfate remaining: 99.5 % rel.
[1]; 6 months
  (6R)-5,10-CH2-THF hemisulfate remaining: 99.5 % rel.
[1]; 6 months, listed as (6R)-5,10-CH2-THF hemisulfate (batch 2)
  (6R)-5,10-CH2-THF hemisulfate remaining: 99.9 % rel.
[1]; 9 months, listed as (6R)-5,10-CH2-THF hemisulfate (batch 1)
  (6R)-5,10-CH2-THF hemisulfate remaining: 99.6 % rel.
[1]; 9 months, listed as (6R)-5,10-CH2-THF hemisulfate (batch 2)
  (6R)-5,10-CH2-THF hemisulfate remaining: 100.0 % rel.
[1]; 9 months, listed as (6R)-5,10-CH2-THF hemisulfate (batch 3)
  (6R)-5,10-CH2-THF hemisulfate remaining: 99.4 % rel.
[1]; 12 months, listed as (6R)-5,10-CH2-THF hemisulfate (batch 1)
  (6R)-5,10-CH2-THF hemisulfate remaining: 99.2 % rel.
[1]; 12 months, listed as (6R)-5,10-CH2-THF hemisulfate (batch 2)
  (6R)-5,10-CH2-THF hemisulfate remaining: 99.7 % rel.
[1]; 12 months, listed as (6R)-5,10-CH2-THF hemisulfate (batch 3)
  (6R)-5,10-CH2-THF hemisulfate remaining: 99.1 % rel.
[1]; 18 months, listed as (6R)-5,10-CH2-THF hemisulfate (batch 1)
  (6R)-5,10-CH2-THF hemisulfate remaining: 99.2 % rel.
[1]; 18 months, listed as (6R)-5,10-CH2-THF hemisulfate (batch 2)
  (6R)-5,10-CH2-THF hemisulfate remaining: 99.4 % rel.
[1]; 18 months, listed as (6R)-5,10-CH2-THF hemisulfate (batch 3)
  (6R)-5,10-CH2-THF hemisulfate remaining: 99.0 % rel.
[1]; 24 months, listed as (6R)-5,10-CH2-THF hemisulfate (batch 1)
  (6R)-5,10-CH2-THF hemisulfate remaining: 99.4 % rel.
[1]; 24 months, listed as (6R)-5,10-CH2-THF hemisulfate (batch 2)
  (6R)-5,10-CH2-THF hemisulfate remaining: 99.4 % rel.
[1]; 24 months, listed as (6R)-5,10-CH2-THF hemisulfate (batch 3)
  (6R)-5,10-CH2-THF hemisulfate remaining: 99.0 % rel.
[1]; 36 months, listed as (6R)-5,10-CH2-THF hemisulfate (batch 1)
  (6R)-5,10-CH2-THF hemisulfate remaining: 98.5 % rel.
[1]; 36 months, listed as (6R)-5,10-CH2-THF hemisulfate (batch 2)
  (6R)-5,10-CH2-THF hemisulfate remaining: 99.0 % rel.
[2]; blood plasma
  Exposure of methylenetetrahydrofolate compared to Levoleucovorin: substantially greater
  Peak plasma concentrations of methylenetetrahydrofolate compared to Levoleucovorin: substantially greater
[2]; both tumor and adjacent mucosa
  Concentration of methylenetetrahydrofolate compared to Levoleucovorin: much higher
  Concentration of tetrahydrofolate compared to Levoleucovorin: much higher
[3]
  Stability over a long period of time (conclusion from Table 12): highly stable
[4]
  Decomposition temperature (TG-FTIR): above 210 °C
[5]
  X-ray pattern distinctive for crystal form Type 1: remained unchanged
[6]
  X-ray pattern distinctive for crystal form Type 1: remained unchanged
[7]
  Safety at highest dose-level administered: safe
[8]; 2-PrOH with ~2 mM L-ascorbic acid, 40 °C, 3 d
  Observation (suspension equilibration): No change
[8]; AcOH saturated with L-ascorbic acid, 50 °C, 1 d
  Observation (suspension equilibration): No change
[8]; AcOH saturated with L-ascorbic acid, 50 °C, 5 d
  Observation (suspension equilibration): No change
[8]; H2O, 5 °C, 6 d
  Observation (suspension equilibration): No change
[8]; MeCN saturated with L-ascorbic acid, 50 °C, 5 d
  Observation (suspension equilibration): No change
[8]; MeOH/formic acid 1:1, 50 °C, 2 h
  Observation (suspension equilibration): No change
[8]; PEG4500/EtOH 1:9 saturated with L-ascorbic acid, 50 °C, 7 d
  Observation (suspension equilibration): No change
[8]; THF with ~2 mM L-ascorbic acid, 40 °C, 3 d
  Observation (suspension equilibration): No change
[8]; formic acid/THF 1:3, 10-20 °C, 6 d
  Observation (suspension equilibration): No change
[9]
  Safety for patients: safe
[10]
  Safety at highest dose-level administered: safe
[11]; comparison of Tables 13 and 14 with Example 3
  Stability over a long period of time compared to (6R)-5,10-CH2-THF sulfate: much more stable

## Nc1nc2c(c(=O)[nH]1)N1CN(c3ccc(C(=O)N[C@@H](CCC(=O)O)C(=O)O)cc3)C[C@H]1CN2 [(6R)-5,10-CH2-THF sulfate, 5,10-methylene-(6R)-tetrahydrofolic acid]
[11]; 5 °C, 0 months, after 15 months at −20 °C, relative to value at preparation
  (6R)-5,10-CH2-THF sulfate remaining: 98.7 % rel.
[11]; 5 °C, 6 months, after 15 months at −20 °C, relative to value at preparation
  (6R)-5,10-CH2-THF sulfate remaining: 97.3 % rel.
[11]; 25 °C/60% rh, 0 months, after 15 months at −20 °C, relative to value at preparation
  (6R)-5,10-CH2-THF sulfate remaining: 98.7 % rel.
[11]; 25 °C/60% rh, 6 months, after 15 months at −20 °C, relative to value at preparation
  (6R)-5,10-CH2-THF sulfate remaining: 95.5 % rel.
[11]; 40 °C/75% rh, 0 months, after 15 months at −20 °C, relative to value at preparation
  (6R)-5,10-CH2-THF sulfate remaining: 98.7 % rel.
[11]; 40 °C/75% rh, 6 months, after 15 months at −20 °C, relative to value at preparation
  (6R)-5,10-CH2-THF sulfate remaining: 95.0 % rel.
[11]; −20 °C, 0 months
  (6R)-5,10-CH2-THF sulfate remaining: 100.0 % rel.
[11]; −20 °C, 15 months
  (6R)-5,10-CH2-THF sulfate remaining: 98.7 % rel.
